Source: US12383526B2, “Optimized sigma-1 agonist method of responder selection and treatment” (ANAVEX LIFE SCIENCES CORP., priority 2018, dated 2025)

Tests used:
[1] = Plasma concentrations of ANAVEX2-73 and its metabolite ANAVEX19-144 in the 57-week study; type: in vivo, human; conditions: for Mean Concentration ANAVEX2-73, Max / Mean Concentration ANAVEX2-73, Mean / Mean Concentration ANAVEX2-73, Min: plasma
Experimental: A pharmacokinetics analysis was performed during Part A only. Blood samples were drawn at 12 and 11 time points after the first oral or IV administration during the first and second periods of Part A, respectively. Pharmacokinetic parameters included in the analysis consisted of maximum plasma drug concentration (C max), time to maximum plasma concentration during a dosing interval (t max), area under the curve from the time of dosing to the last measurable concentration (AUC0-t), mean elimination half-life (t ½), and the total body clearance for extravascular administration divided by the fraction of dose absorbed (CL/F).
Steady-state plasma levels of ANAVEX2-73 and its metabolite ANAVEX19-144 were assessed in Part B through blood samples collection at pre-specified time points (Weeks 12, 26, 36 and 48). Mean concentration values in ng/mL of each patient were then averaged. Table 14 illustrates mean plasma concentrations of ANAVEX2-73 and its metabolite ANAVEX19-144 during the 57-week study study.

[2] = Safety and tolerability, 57-week study; type: in vivo, human
Experimental: Part B, following immediately after Part A, was an open-label extension of the oral daily dose for an additional 52 weeks. The primary endpoint of 57-week study was to establish the safety and tolerability of the drug. Secondary endpoints aimed at establishing the relationship between dosing regimen and pharmacodynamics-exploratory efficacy outcomes of cognition and function. Cognition was assessed by the Mini Mental State Examination (MMSE), while functional abilities by the Alzheimer's Disease Co-operative Study—Activities of Daily Living Inventory (ADCS-ADL). Additional cognitive measures included the Cogstate Brief Battery (CBB), and functional measures of Electroencephalography and Event-Related Potential (EEG and ERP). Part B continued an adaptive oral administration scheme. Table 12 summarizes mean oral dose administration during the 57-week study study. Safety was evaluated by assessment of incidence and severity of adverse events, vital signs, physical examination, clinical laboratory parameters (hematology, serum chemistry and urinalysis), and electrocardiogram (data not shown).

[3] = tested on: Alzheimer's disease / dementia patients; assay: Sigma-1 agonist responder determination and therapy, single-patient examples 6-13; type: in vivo, human; conditions: 6 months
Experimental: A person presents with diagnosed Alzheimer's disease. Their SIGMAR1 gene is analyzed to the extent that it is determined that they carry glutamine at the 2 position of the SIGMAR1 gene. This is the wildtype. They are treated with A2-73 daily with a 30 mg oral dose. For 6 months.
A person presents with diagnosed Alzheimer's disease. A cheek swab is taken and a genotype assay is performed to determine the presence of the SIGMAR1 2P genotype. By such analysis it is determined that the subject carries glutamine at the 2 position of the SigmaR1 gene receptor (protein). They are treated with ANAVEX2-73 daily with a 30 mg oral dose. For 6 months.
A person presents with diagnosed dementia. Their SIGMAR1 gene is analyzed to the extent that it is determined that they carry proline at the 2 position of the SIGMAR1 gene. They are treated with ANAVEX2-73 daily with a 80 mg oral dose in combination with 1.5 mg oral rivastigmine twice per day for 6 months.
A person presents with diagnosed Alzheimer's disease. […] They are treated with the A2-73 daily with a 30 mg oral dose. For 6 months.
A person presents with diagnosed Alzheimer's disease. […] They are treated with A2-73 daily with a 30 mg oral dose. For 6 months.
A person presents with diagnosed dementia. They carry glutamine at the 2 position of the SIGMAR1 gene. It is determined that they carry the KANSL1_p.P1010L/P304L/P946L mutation. They are treated with ANAVEX2-73 daily with a 70 mg oral dose in combination with 7 mg oral memantine daily for 6 months.

SIGMAR1 = target: T1, SIGMAR1 (Mus musculus, UniProt O55242); conditions: mice; cited from earlier work
T1 construct: from tissue; host or cells: living mice (in vivo PET)

[4] = tested on: cholinergic muscarinic receptors; conditions: mice; cited from earlier work

T1 sequence (O55242 whole entry): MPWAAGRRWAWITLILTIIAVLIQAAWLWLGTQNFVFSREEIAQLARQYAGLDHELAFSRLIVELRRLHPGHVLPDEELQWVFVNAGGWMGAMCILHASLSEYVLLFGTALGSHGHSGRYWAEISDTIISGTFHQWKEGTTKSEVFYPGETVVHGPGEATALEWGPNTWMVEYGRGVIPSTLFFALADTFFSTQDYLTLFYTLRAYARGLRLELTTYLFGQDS

For `CN(C)CC1CCOC1(c1ccccc1)c1ccccc1.Cl` (centres unmarked) [ANAVEX2-73, tetrahydro-N,N-dimethyl-2,2-diphenyl-3-furanmethanamine hydrochloride], the “plasma concentration versus dose in the present study” value ([1]; 57-week study Part A, FIG. 2B) was “dose-dependent increase”, the “Mean Concentration ANAVEX2-73, Max” value ([1]; Part A1 (Day 1-2)) was 15.9 ng/mL and the “Mean Concentration ANAVEX2-73, Mean” value ([1]; Part A1 (Day 1-2)) was 5.25 ng/mL. For the same molecule, the “Mean Concentration ANAVEX2-73, Min” value ([1]; Part A1 (Day 1-2: within 2 days of first oral dose), N = 32 patients) was 0.84 ng/mL, the “Mean Concentration ANAVEX2-73, Max” value ([1]; Part A2 (Day 3-12)) was 8.44 ng/mL and the “Mean Concentration ANAVEX2-73, Mean” value ([1]; Part A2 (Day 3-12)) was 2.11 ng/mL. For the same molecule, the “Mean Concentration ANAVEX2-73, Min” value ([1]; Part A2 (Day 3-12)) was 0.03 ng/mL, the “Mean Concentration ANAVEX2-73, Max” value ([1]; Part B (Week 5 to Week 57)) was 11.58 ng/mL and the “Mean Concentration ANAVEX2-73, Mean” value ([1]; Part B (Week 5 to Week 57)) was 3.8 ng/mL. The “Mean Concentration ANAVEX2-73, Min” value ([1]; Part B (Week 5 to Week 57)) was 0 ng/mL, the “primary endpoint of safety and tolerability” value ([2]; 57-week Phase 2a AD study, 32 patients with mild to moderate AD) was “met its primary endpoint of safety and tolerability” and the “patients discontinued due to an Adverse Event (AE)” value ([2]; 57-week study, seven patients discontinued in total) was “one”. The disease course ([3]; Example 6: person, Alzheimer's disease, glutamine at the 2 position of SIGMAR1, 30 mg oral daily) was “stable and not progress”, the disease course ([3]; Example 7: person, Alzheimer's disease, glutamine at the 2 position (cheek swab genotype assay), 30 mg oral daily) was “stable and not progress” and the disease course ([3]; Example 9: person, dementia, proline at the 2 position of SIGMAR1, 80 mg oral daily in combination with 1.5 mg oral rivastigmine twice per day) was “stable and not progress”. The disease course ([3]; Example 10: person, Alzheimer's disease, no COMT rs113895332/rs61143203 mutation, 30 mg oral daily) was “stable and not progress”, the disease course ([3]; Example 11: person, Alzheimer's disease, no SIGMAR1 rs1800866, 30 mg oral daily) was “stable and not progress” and the disease course ([3]; Example 13: person, dementia, glutamine at the 2 position, KANSL1_p.P1010L/P304L/P946L mutation, 70 mg oral daily in combination with 7 mg oral memantine daily) was “stable and not progress”. For the same molecule, the “target binding by PET scan” value (SIGMAR1) was “directly bind its target” and the “modulation of cholinergic muscarinic receptors” value [4] was “modulate cholinergic muscarinic receptors”.
